Reference: US20230002359A1, “PESTICIDALLY ACTIVE FUSED BICYCLIC HETEROAROMATIC COMPOUNDS” (priority 2019, published 2023)

How the values were obtained:
Type in all cases: in vivo
[1] = system: Chilo suppressalis (Striped Rice Stemborer); test: Example B3: Chilo suppressalis (striped rice stemborer), artificial diet, L2 larvae; settings: 144 h, application rate of 200 ppm, 6 days after infestation, L2 larvae, read-out: control in at least one of the three categories (mortality, anti-feedant effect, or growth inhibition)
Summary of the method: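 Artificial diet in wells was treated with aqueous test solutions diluted from 10'000 ppm DMSO stocks, dried, then infested with 6-8 L2 larvae per well. Mortality, anti-feeding effect and growth inhibition were scored against untreated samples 6 days after infestation; control means any category exceeds the untreated sample.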

[2] = system: Diabrotica Balteata (Corn Root Worm); test: Example B1: Diabrotica balteata (corn root worm), maize sprouts sprayed, L2 larvae; settings: 96 h, application rate of 200 ppm, 4 days after infestation, L2 larvae, read-out: control in at least one of the two categories (mortality or growth inhibition)
Summary of the method: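 Maize sprouts on agar were sprayed with aqueous test solutions made from 10′000 ppm DMSO stocks, dried, then infested with 6 to 10 L2 larvae per well. Mortality and growth inhibition were scored against untreated samples 4 days after infestation.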

[3] = system: Spodoptera littoralis (Egyptian Cotton Leaf Worm); test: Example B7: Spodoptera littoralis (Egyptian cotton leaf worm), cotton leaf discs sprayed, L1 larvae; settings: foliar, 72 h, application rate of 200 ppm, 3 days after infestation, L1 larvae, read-out: control in at least one of the three categories (mortality, anti-feedant effect, or growth inhibition)
Summary of the method: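 Leaf discs on agar sprayed with aqueous dilutions of 10′000 ppm DMSO stocks, dried, then infested with five L1 larvae. Mortality, anti-feeding and growth inhibition scored versus untreated 3 days after infestation; control given when any category exceeds untreated.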

[4] = system: Euschistus heros (Neotropical Brown Stink Bug); test: Example B2: Euschistus heros (neotropical brown stink bug), soybean leaves sprayed, N2 nymphs; settings: 120 h, application rate of 200 ppm, 5 days after infestation, N2 nymphs, read-out: control in at least one of the two categories (mortality or growth inhibition)
Method: Soybean leaves on agar in 24-well microtiter plates were sprayed with aqueous test solutions prepared from 10′000 ppm DMSO stock solutions. After drying the leaves were infested with N2 nymphs. The samples were assessed for mortality and growth inhibition in comparison to untreated samples 5 days after infestation.

[5] = system: Plutella xylostella (Diamond Back Moth); test: Example B4: Plutella xylostella (diamond back moth), artificial diet, eggs, 24-well; settings: 192 h, application rate of 200 ppm, 8 days after infestation, eggs, read-out: control in at least one of the two categories (mortality or growth inhibition)
Method: 24-well microtiter plates with artificial diet were treated with aqueous test solutions prepared from 10′000 ppm DMSO stock solutions by pipetting. After drying, Plutella eggs were pipetted through a plastic stencil onto a gel blotting paper and the plate was closed with it. The samples were assessed for mortality and growth inhibition in comparison to untreated samples 8 days after infestation.

[6] = system: Myzus persicae (Green Peach Aphid); test: Example B6: Myzus persicae (green peach aphid) intrinsic activity, sucrose solution; settings: 120 h, test rate of 12 ppm, 5 days after infestation, intrinsic activity, read-out: mortality
Summary of the method: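 Compounds from 10′000 ppm DMSO stocks were mixed into sucrose solution in 24-well plates sealed with Parafilm. Aphid-infested pea seedlings were set on the membrane and the plate inverted so aphids fed through it. Mortality scored 5 days after infestation.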

CC(=O)N(c1ncnc2c(C(F)(F)F)cc(C(F)(F)F)cc12)C(C)c1ncnn1-c1ccc(C#N)cn1 (stereo not drawn) [P.259, N-[6,8-bis(trifluoromethyl)quina-zolin-4-yl]-N-[1-[2-(5-cyano-2-pyridyl)-1,2,4-triazol-3-yl]ethyl]acetamide]
≥ 80%: percent control (mortality, anti-feedant effect or growth inhibition) at 200 ppm [1] | percent control (mortality or growth inhibition) at 200 ppm [2] | percent control (mortality, anti-feedant effect or growth inhibition) at 200 ppm [3] | percent control (mortality or growth inhibition) at 200 ppm [4] | percent control (mortality or growth inhibition) at 200 ppm [5]

C[C@H](Nc1ncnc2c(C(F)(F)F)cc(I)cc12)c1ncnn1-c1ncccn1 [P.87, 6-iodo-N-[(1S)-1-(2-pyrimidin-2-yl-1,2,4-triazol-3-yl)ethyl]-8-(trifluoromethyl)quinazolin-4-amine]
≥ 80%: percent control (mortality, anti-feedant effect or growth inhibition) at 200 ppm [1] | percent control (mortality or growth inhibition) at 200 ppm [2] | percent control (mortality or growth inhibition) at 200 ppm [4] | percent control (mortality or growth inhibition) at 200 ppm [5] | mortality at 12 ppm [6]

C[C@@H](c1ncnn1-c1ccc(C#N)cn1)N(C)c1ncnc2c(C(F)(F)C3CC3)cc(C(F)(F)F)cc12 [P.213, 6-[5-[(1S)-1-[[8-[cyclopropyl(difluoro)meth-yl]-6-(trifluoromethyl)quinazolin-4-yl]-methyl-amino]ethyl]-1,2,4-triazol-1-yl]pyridine-3-carbonitrile]
≥ 80%: percent control (mortality, anti-feedant effect or growth inhibition) at 200 ppm [1] | percent control (mortality or growth inhibition) at 200 ppm [2] | percent control (mortality, anti-feedant effect or growth inhibition) at 200 ppm [3] | percent control (mortality or growth inhibition) at 200 ppm [4] | percent control (mortality or growth inhibition) at 200 ppm [5]

CC(c1ncnn1-c1ccc(C#N)cn1)N(C)c1ncnc2c(OC(F)(F)F)cc(Br)cc12 (stereo not drawn) [P.216, 6-[5-[1-[[6-bromo-8-(trifluoromethoxy)quinazo-lin-4-yl]-methyl-amino]ethyl]-1,2,4-triazol-1-yl]pyridine-3-carbonitrile]
≥ 80%: percent control (mortality, anti-feedant effect or growth inhibition) at 200 ppm [1] | percent control (mortality or growth inhibition) at 200 ppm [2] | percent control (mortality, anti-feedant effect or growth inhibition) at 200 ppm [3] | percent control (mortality or growth inhibition) at 200 ppm [4] | percent control (mortality or growth inhibition) at 200 ppm [5]

C[C@@H](c1ncnn1-c1ncccn1)N(C)c1ncnc2c(C(F)(F)F)cc(SC(F)(F)F)cc12 [P.84, N-methyl-N-[(1S)-1-(2-pyrimidin-2-yl-1,2,4-triazol-3-yl)ethyl]-8-(trifluoromethyl)-6-(trifluoromethylsulfanyl) quinazolin-4-amine]
≥ 80%: percent control (mortality, anti-feedant effect or growth inhibition) at 200 ppm [1] | percent control (mortality or growth inhibition) at 200 ppm [2] | percent control (mortality or growth inhibition) at 200 ppm [4] | percent control (mortality or growth inhibition) at 200 ppm [5] | mortality at 12 ppm [6]

CC(c1nccnc1-c1ncccn1)N(C)c1ncnc2c(C(F)(F)F)cc(C(F)(F)F)cc12 (stereo not drawn) [P.107, N-methyl-N-[1-(3-pyrimidin-2-ylpyrazin-2-yl)ethyl]-6,8-bis(trifluoromethyl)quina-zolin-4-amine]
≥ 80%: percent control (mortality, anti-feedant effect or growth inhibition) at 200 ppm [1] | percent control (mortality or growth inhibition) at 200 ppm [2] | percent control (mortality, anti-feedant effect or growth inhibition) at 200 ppm [3] | percent control (mortality or growth inhibition) at 200 ppm [4] | percent control (mortality or growth inhibition) at 200 ppm [5]

C[C@@H](c1ncnn1-c1ncccn1)N(C)c1ncnc2c(C(F)(F)F)cc(C(F)(F)C3CC3)cc12 [P.276, 6-[cyclopropyl(difluoro)meth-yl]-N-methyl-N-[(1S)-1-(2-pyrimidin-2-yl-1,2,4-triazol-3-yl)ethyl]-8-(trifluromethyl)quinazolin-4-amine]
≥ 80%: percent control (mortality, anti-feedant effect or growth inhibition) at 200 ppm [1] | percent control (mortality or growth inhibition) at 200 ppm [2] | percent control (mortality, anti-feedant effect or growth inhibition) at 200 ppm [3] | percent control (mortality or growth inhibition) at 200 ppm [4] | percent control (mortality or growth inhibition) at 200 ppm [5]

C#CCN(c1ncnc2c(C(F)(F)F)cc(C(F)(F)F)cc12)C(C)c1ncnn1-c1ccc(C#N)cn1 (stereo not drawn) [P.261, 6-[5-[1-[[6,8-bis(trifluoromethyl)quina-zolin-4-yl]-prop-2-ynyl-amino]ethyl]-1,2,4-triazol-1-yl]pyridine-3-carbonitrile]
≥ 80%: percent control (mortality, anti-feedant effect or growth inhibition) at 200 ppm [1] | percent control (mortality or growth inhibition) at 200 ppm [2] | percent control (mortality, anti-feedant effect or growth inhibition) at 200 ppm [3] | percent control (mortality or growth inhibition) at 200 ppm [4] | percent control (mortality or growth inhibition) at 200 ppm [5]

CC(Nc1ncnc2c(Br)cc(C(F)(F)F)cc12)c1ncnn1-c1ncccn1 (stereo not drawn) [P.47, 8-bromo-N-[1-(2-pyrimidin-2-yl-1,2,4-triazol-3-yl)ethyl]-6-(trifluoromethyl)quinazolin-4-amine]
≥ 80%: percent control (mortality, anti-feedant effect or growth inhibition) at 200 ppm [1] | percent control (mortality or growth inhibition) at 200 ppm [2] | percent control (mortality, anti-feedant effect or growth inhibition) at 200 ppm [3] | percent control (mortality or growth inhibition) at 200 ppm [4] | percent control (mortality or growth inhibition) at 200 ppm [5]

CC(c1ncnn1-c1ccc(C#N)cn1)N(Cc1ccccc1)c1ncnc2c(C(F)(F)F)cc(C(F)(F)F)cc12 (stereo not drawn) [P.8, 6-[5-[1-[benzyl-[6,8-bis(trifluoromethyl)quina-zolin-4-yl]amino]ethyl]-1,2,4-triazol-1-yl]pyridine-3-carbonitrile]
≥ 80%: percent control (mortality, anti-feedant effect or growth inhibition) at 200 ppm [1] | percent control (mortality or growth inhibition) at 200 ppm [2] | percent control (mortality, anti-feedant effect or growth inhibition) at 200 ppm [3] | percent control (mortality or growth inhibition) at 200 ppm [4] | percent control (mortality or growth inhibition) at 200 ppm [5]

CC(c1ncnn1-c1ncccn1)N(C)c1ncnc2c(Br)cc(C(F)(F)F)cc12 (stereo not drawn) [P.71, 8-bromo-N-methyl-N-[1-(2-pyrimidin-2-yl-1,2,4-triazol-3-yl)ethyl]-6-(trifluoromethyl)quinazolin-4-amine]
≥ 80%: percent control (mortality, anti-feedant effect or growth inhibition) at 200 ppm [1] | percent control (mortality or growth inhibition) at 200 ppm [2] | percent control (mortality or growth inhibition) at 200 ppm [4] | percent control (mortality or growth inhibition) at 200 ppm [5] | mortality at 12 ppm [6]

C[C@@H](c1ncnn1-c1ncccn1)N(C)c1ncnc2c(C(F)(F)F)cc(C(=O)C3CC3)cc12 [P.82, cyclopropyl-[4-[methyl-[(1S)-1-(2-pyrimidin-2-yl-1,2,4-triazol-3-yl)ethyl]amino]-8-(trifluoromethyl)quinazolin-6-yl]methanone]
≥ 80%: percent control (mortality, anti-feedant effect or growth inhibition) at 200 ppm [1] | percent control (mortality or growth inhibition) at 200 ppm [2] | percent control (mortality or growth inhibition) at 200 ppm [4] | percent control (mortality or growth inhibition) at 200 ppm [5] | mortality at 12 ppm [6]

COCN(c1ncnc2c(C(F)(F)F)cc(C(F)(F)F)cc12)C(C)c1ncnn1-c1ccc(C#N)cn1 (stereo not drawn) [P.7, 6-[5-[1-[[6,8-bis(trifluroomethyl)quina-zolin-4-yl]-(methoxymethyl)amino]ethyl]-1,2,4-triazol-1-yl]pyridine-3-carbonitrile]
≥ 80%: percent control (mortality, anti-feedant effect or growth inhibition) at 200 ppm [1] | percent control (mortality or growth inhibition) at 200 ppm [2] | percent control (mortality, anti-feedant effect or growth inhibition) at 200 ppm [3] | percent control (mortality or growth inhibition) at 200 ppm [4] | percent control (mortality or growth inhibition) at 200 ppm [5]

CC(Nc1nccc2c(C(F)(F)F)cc(C(F)(F)F)cc12)c1ncnn1-c1ncccn1 (stereo not drawn) [P.83, N-[1-(2-pyrimidin-2-yl-1,2,4-triazol-3-yl)ethyl]-5,7-bis(trifluoromethyl)isoquinolin-1-amine]
≥ 80%: percent control (mortality, anti-feedant effect or growth inhibition) at 200 ppm [1] | percent control (mortality or growth inhibition) at 200 ppm [2] | percent control (mortality or growth inhibition) at 200 ppm [4] | percent control (mortality or growth inhibition) at 200 ppm [5]
